The supplement of paper PMC10733146

Key:
Assay in all cases: viability relative to DMSO control (fraction); higher = less drug effect (more viable cells)
Details in all cases: 48 h
[1] = system: primary AML patient cells (S002)
Outline: (§1)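 Viability was quantified by CellTiter-Glo luminescence and related to the median of 16 inner DMSO wells. Before that, primary mononuclear tumour cells, fresh or cryopreserved and Ficoll-isolated from blood or bone marrow or prepared from processed lymph node, were plated at 4 × 10^4 cells per well in 384-well plates containing pre-plated compounds at five concentrations, one well each. Plates were incubated in RPMI-1640 with penicillin/streptomycin, L-glutamine and human serum at 37 °C and 5% CO2 for 48 h.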

[2] = system: primary AML patient cells (S009)
Outline: as §1

[3] = system: primary AML patient cells (S017)
Outline: as §1

[4] = system: primary AML patient cells (S021)
Outline: as §1

[5] = system: primary AML patient cells (S025)
Outline: as §1

[6] = system: primary AML patient cells (S037)
Outline: as §1

[7] = system: primary AML patient cells (S055)
Outline: as §1

[8] = system: primary AML patient cells (S060)
Outline: as §1

[9] = system: primary AML patient cells (S071)
Outline: as §1

[10] = system: primary AML patient cells (S072)
Outline: as §1

[11] = system: primary AML patient cells (S081)
Outline: as §1

[12] = system: primary AML patient cells (S089)
Outline: as §1

[13] = system: primary AML patient cells (S091)
Outline: as §1

[14] = system: primary B-PLL patient cells (S016)
Outline: as §1

[15] = system: primary BL patient cells (S005)
Outline: as §1

[16] = system: primary CLL patient cells (S043)
Outline: as §1

[17] = system: primary DLBCL patient cells (S082)
Outline: as §1

[18] = system: primary MCL patient cells (S053)
Outline: as §1

[19] = system: primary MCL patient cells (S068)
Outline: as §1

[20] = system: primary T-PLL patient cells (S008)
Outline: as §1

Compound: Nc1ncn([C@H]2C[C@H](O)[C@@H](CO)O2)c(=O)n1 [Decitabine (Dacogen)]
- viability ([1]; 0.024 µM): 1.03
- viability ([1]; 0.12 µM): 1.03
- viability ([1]; 0.6 µM): 0.952
- viability ([1]; 3 µM): 0.892
- viability ([1]; 15 µM): 0.903
- viability ([2]; 0.024 µM): 0.915
- viability ([2]; 0.12 µM): 0.951
- viability ([2]; 0.6 µM): 0.854
- viability ([2]; 3 µM): 0.859
- viability ([2]; 15 µM): 0.702
- viability ([3]; 0.024 µM): 1.09
- viability ([3]; 0.12 µM): 0.954
- viability ([3]; 0.6 µM): 1.16
- viability ([3]; 3 µM): 0.918
- viability ([3]; 15 µM): 1.08
- viability ([4]; 0.024 µM): 1.17
- viability ([4]; 0.12 µM): 0.973
- viability ([4]; 0.6 µM): 1.03
- viability ([4]; 3 µM): 0.942
- viability ([4]; 15 µM): 0.818
- viability ([5]; 0.024 µM): 0.968
- viability ([5]; 0.12 µM): 0.953
- viability ([5]; 0.6 µM): 0.912
- viability ([5]; 3 µM): 0.694
- viability ([5]; 15 µM): 0.535
- viability ([6]; 0.024 µM): 1.01
- viability ([6]; 0.12 µM): 0.925
- viability ([6]; 0.6 µM): 0.981
- viability ([6]; 3 µM): 0.91
- viability ([6]; 15 µM): 0.955
- viability ([7]; 0.024 µM): 1.05
- viability ([7]; 0.12 µM): 0.939
- viability ([7]; 0.6 µM): 1.03
- viability ([7]; 3 µM): 0.972
- viability ([7]; 15 µM): 1.02
- viability ([8]; 0.024 µM): 1.01
- viability ([8]; 0.12 µM): 0.975
- viability ([8]; 0.6 µM): 1.02
- viability ([8]; 3 µM): 0.99
- viability ([8]; 15 µM): 1.01
- viability ([9]; 0.024 µM): 0.995
- viability ([9]; 0.12 µM): 0.948
- viability ([9]; 0.6 µM): 0.934
- viability ([9]; 3 µM): 0.792
- viability ([9]; 15 µM): 0.756
- viability ([10]; 0.024 µM): 1.02
- viability ([10]; 0.12 µM): 0.93
- viability ([10]; 0.6 µM): 0.964
- viability ([10]; 3 µM): 0.83
- viability ([10]; 15 µM): 0.811
- viability ([11]; 0.024 µM): 1.05
- viability ([11]; 0.12 µM): 0.898
- viability ([11]; 0.6 µM): 1.05
- viability ([11]; 3 µM): 0.912
- viability ([11]; 15 µM): 0.931
- viability ([12]; 0.024 µM): 0.729
- viability ([12]; 0.12 µM): 1.06
- viability ([12]; 0.6 µM): 0.632
- viability ([12]; 3 µM): 1.22
- viability ([12]; 15 µM): 0.642
- viability ([13]; 0.024 µM): 0.958
- viability ([13]; 0.12 µM): 1.09
- viability ([13]; 0.6 µM): 0.83
- viability ([13]; 3 µM): 0.913
- viability ([13]; 15 µM): 0.617
- viability ([14]; 0.024 µM): 0.927
- viability ([14]; 0.12 µM): 0.83
- viability ([14]; 0.6 µM): 0.972
- viability ([14]; 3 µM): 0.874
- viability ([14]; 15 µM): 0.88
- viability ([15]; 0.024 µM): 0.833
- viability ([15]; 0.12 µM): 1.27
- viability ([15]; 0.6 µM): 0.828
- viability ([15]; 3 µM): 1.27
- viability ([15]; 15 µM): 0.8
- viability ([16]; 0.024 µM): 0.965
- viability ([16]; 0.12 µM): 0.976
- viability ([16]; 0.6 µM): 0.975
- viability ([16]; 3 µM): 0.959
- viability ([16]; 15 µM): 0.899
- viability ([17]; 0.024 µM): 0.993
- viability ([17]; 0.12 µM): 0.936
- viability ([17]; 0.6 µM): 0.973
- viability ([17]; 3 µM): 0.908
- viability ([17]; 15 µM): 0.967
- viability ([18]; 0.024 µM): 0.969
- viability ([18]; 0.12 µM): 0.824
- viability ([18]; 0.6 µM): 0.878
- viability ([18]; 3 µM): 0.807
- viability ([18]; 15 µM): 0.735
- viability ([19]; 0.024 µM): 0.948
- viability ([19]; 0.12 µM): 0.974
- viability ([19]; 0.6 µM): 0.926
- viability ([19]; 3 µM): 0.938
- viability ([19]; 15 µM): 0.775
- viability ([20]; 0.024 µM): 0.968
- viability ([20]; 0.12 µM): 1.02
- viability ([20]; 0.6 µM): 0.953
- viability ([20]; 3 µM): 1.08
- viability ([20]; 15 µM): 1.01

Compound: Nc1nc(=S)c2[nH]cnc2[nH]1 [Thioguanin]
- viability ([1]; 0.024 µM): 1.1
- viability ([1]; 0.12 µM): 1.09
- viability ([1]; 0.6 µM): 0.949
- viability ([1]; 3 µM): 0.66
- viability ([1]; 15 µM): 0.446
- viability ([2]; 0.024 µM): 1.14
- viability ([2]; 0.12 µM): 1.09
- viability ([2]; 0.6 µM): 1.07
- viability ([2]; 3 µM): 0.696
- viability ([2]; 15 µM): 0.489
- viability ([3]; 0.024 µM): 0.97
- viability ([3]; 0.12 µM): 1.05
- viability ([3]; 0.6 µM): 0.785
- viability ([3]; 3 µM): 0.561
- viability ([3]; 15 µM): 0.38
- viability ([4]; 0.024 µM): 1.11
- viability ([4]; 0.12 µM): 0.984
- viability ([4]; 0.6 µM): 0.918
- viability ([4]; 3 µM): 0.672
- viability ([4]; 15 µM): 0.435
- viability ([5]; 0.024 µM): 0.945
- viability ([5]; 0.12 µM): 0.751
- viability ([5]; 0.6 µM): 0.615
- viability ([5]; 3 µM): 0.279
- viability ([5]; 15 µM): 0.152
- viability ([6]; 0.024 µM): 1
- viability ([6]; 0.12 µM): 0.937
- viability ([6]; 0.6 µM): 0.701
- viability ([6]; 3 µM): 0.481
- viability ([6]; 15 µM): 0.395
- viability ([7]; 0.024 µM): 0.964
- viability ([7]; 0.12 µM): 0.867
- viability ([7]; 0.6 µM): 0.49
- viability ([7]; 3 µM): 0.19
- viability ([7]; 15 µM): 0.114
- viability ([8]; 0.024 µM): 1.03
- viability ([8]; 0.12 µM): 0.969
- viability ([8]; 0.6 µM): 0.697
- viability ([8]; 3 µM): 0.643
- viability ([8]; 15 µM): 0.424
- viability ([9]; 0.024 µM): 1.02
- viability ([9]; 0.12 µM): 0.879
- viability ([9]; 0.6 µM): 0.577
- viability ([9]; 3 µM): 0.403
- viability ([9]; 15 µM): 0.228
- viability ([10]; 0.024 µM): 1.02
- viability ([10]; 0.12 µM): 1.01
- viability ([10]; 0.6 µM): 0.768
- viability ([10]; 3 µM): 0.538
- viability ([10]; 15 µM): 0.387
- viability ([11]; 0.024 µM): 1.09
- viability ([11]; 0.12 µM): 0.899
- viability ([11]; 0.6 µM): 0.621
- viability ([11]; 3 µM): 0.465
- viability ([11]; 15 µM): 0.319
- viability ([12]; 0.024 µM): 0.765
- viability ([12]; 0.12 µM): 0.607
- viability ([12]; 0.6 µM): 0.648
- viability ([12]; 3 µM): 0.313
- viability ([12]; 15 µM): 0.0421
- viability ([13]; 0.024 µM): 0.859
- viability ([13]; 0.12 µM): 0.817
- viability ([13]; 0.6 µM): 0.919
- viability ([13]; 3 µM): 0.6
- viability ([13]; 15 µM): 0.254
- viability ([14]; 0.024 µM): 0.919
- viability ([14]; 0.12 µM): 0.71
- viability ([14]; 0.6 µM): 0.403
- viability ([14]; 3 µM): 0.23
- viability ([14]; 15 µM): 0.212
- viability ([15]; 0.024 µM): 0.938
- viability ([15]; 0.12 µM): 0.665
- viability ([15]; 0.6 µM): 0.823
- viability ([15]; 3 µM): 0.673
- viability ([15]; 15 µM): 0.261
- viability ([16]; 0.024 µM): 0.884
- viability ([16]; 0.12 µM): 0.798
- viability ([16]; 0.6 µM): 0.685
- viability ([16]; 3 µM): 0.546
- viability ([16]; 15 µM): 0.338
- viability ([17]; 0.024 µM): 1.01
- viability ([17]; 0.12 µM): 0.972
- viability ([17]; 0.6 µM): 0.844
- viability ([17]; 3 µM): 0.602
- viability ([17]; 15 µM): 0.457
- viability ([18]; 0.024 µM): 0.893
- viability ([18]; 0.12 µM): 0.699
- viability ([18]; 0.6 µM): 0.45
- viability ([18]; 3 µM): 0.25
- viability ([18]; 15 µM): 0.173
- viability ([19]; 0.024 µM): 0.982
- viability ([19]; 0.12 µM): 0.892
- viability ([19]; 0.6 µM): 0.83
- viability ([19]; 3 µM): 0.6
- viability ([19]; 15 µM): 0.299
- viability ([20]; 0.024 µM): 1.02
- viability ([20]; 0.12 µM): 0.986
- viability ([20]; 0.6 µM): 0.957
- viability ([20]; 3 µM): 0.9
- viability ([20]; 15 µM): 0.629
